{"source": "patent US20230405028A1", "about": "(priority 2020, published 2023)", "key": {"GABA": {"test_system": "GABA", "assay": "GABA in A-172 cells", "assay_type": "cell-based", "settings": "escalating doses", "description": "(§1) This experiment was designed to explore the synergistic interaction of 5HT2A agonist and a TRP agonists on receptors in the brain that are associated with depression and/or inflammation. […] The development of an inflammatory microenvironment is considered important to the initiation and progression of glioblastoma; however, therapeutic approaches to target inflammation have previously been limited. The abnormal function of IL-6 and IL-8 has been predicted to lead to glioblastoma.\n(§2) Thus, unlike the experiments on HSIEC cells described above, no inflammatory treatment was applied to the A-172 cells. The A-172 cells were grown to […] confluence on T-25 flasks to allow a 96-hour duration of exposure of the cells to the compounds of interest"}, "[1]": {"test_system": "Human primary small intestinal epithelial cells (HSIEC)"}, "A-172 glioblastoma cells": {"test_system": "A-172 glioblastoma cells", "assay": "MTT cell viability assay in A-172 cells"}, "individuals [2]": {"test_system": "individuals", "assay": "Surveys of participants using the formulations (music festival, wellness retreat, home use)", "settings": "surveys and self-report", "protocol": "Edible chew and capsule formulations including the Base 07—Complete with coffee beans, the 5HT2A agonist alone with corn starch (positive control) or sugar and placebo formulations including corn starch (negative control) or sugar alone (double negative control) were prepared and provided to small groups of individuals for assessment of the effects of the compositions.\nThe formulations also included additional GRAS material. […] Some studies were undertaken in the context of a music festival. Other studies were undertaken at psilocybin retreat events. Numerous individuals also self-administered the formulations in their personal space and observed their daily routines over an extended number of days of using the formulations. Exclusion criteria were applied in a questionnaire to exclude individuals with a schizophrenia diagnosis, individuals with a family history of schizophrenia, pregnant individuals, minors and other high-risk categories for using psilocybin.\nTypically, between 1 and 9 dosage units were provided to each participant per day. The studies varied in duration from one day to four weeks. Heavier individuals (<75 kg) were typically given larger dosages.\nOn multiple occasions a standard dose of the chocolate format of the complete recipe was distributed prior to a music festival event in Jamaica. […]"}, "iNOS": {"test_system": "iNOS", "assay": "iNOS in HSIEC cells treated with TNF-α/IFN-γ", "assay_type": "cell-based, human", "settings": "5, 10, 20, 40 μM"}, "BDNF": {"test_system": "BDNF", "assay": "BDNF in A-172 cells", "assay_type": "cell-based", "settings": "escalating doses", "description": "as §1, §2"}, "individuals [3]": {"test_system": "individuals", "assay": "Minimum effective dose (MED, MED50) and perceived effects of 5HT2A agonist with or without TRP agonists in individuals", "assay_type": "in vivo, human"}}, "note": "Read-outs that look alike come from different tables or passages of the source."}
{"smiles": "CN(C)CCc1c[nH]c2cccc(OP(=O)(O)O)c12", "note": "[psilocybin, 3-[2-(dimethylamino)ethyl]-4-phosphoryloxyindole, reference compound]", "values": [{"measurement": "dose resulting in the greatest increase of GABA", "setting": "GABA", "result": 5, "unit": "µM"}, {"measurement": "effect on cell growth / cellular metabolic activity (MTT, words)", "setting": "[1]", "result": "increase growth of cells"}, {"measurement": "Cellular Metabolic Activity", "setting": "[1]; 5 μM, 24 h", "result": 0.098}, {"measurement": "Cellular Metabolic Activity", "setting": "[1]; 5 μM, 48 h", "result": 0.186}, {"measurement": "Cellular Metabolic Activity", "setting": "[1]; 5 μM, 72 h", "result": 0.380}, {"measurement": "Cellular Metabolic Activity", "setting": "[1]; 5 μM, 96 h", "result": 0.621}, {"measurement": "Cellular Metabolic Activity", "setting": "[1]; 5 μM, time 0", "result": 0.047}, {"measurement": "Cellular Metabolic Activity", "setting": "[1]; 10 μM, 24 h", "result": 0.107}, {"measurement": "Cellular Metabolic Activity", "setting": "[1]; 10 μM, 48 h", "result": 0.198}, {"measurement": "Cellular Metabolic Activity", "setting": "[1]; 10 μM, 72 h", "result": 0.388}, {"measurement": "Cellular Metabolic Activity", "setting": "[1]; 10 μM, 96 h", "result": 0.624}, {"measurement": "Cellular Metabolic Activity", "setting": "[1]; 10 μM, time 0", "result": 0.038}, {"measurement": "Cellular Metabolic Activity", "setting": "[1]; 20 μM, 24 h", "result": 0.150}, {"measurement": "Cellular Metabolic Activity", "setting": "[1]; 20 μM, 48 h", "result": 0.238}, {"measurement": "Cellular Metabolic Activity", "setting": "[1]; 20 μM, 72 h", "result": 0.415}, {"measurement": "Cellular Metabolic Activity", "setting": "[1]; 20 μM, 96 h", "result": 0.635}, {"measurement": "Cellular Metabolic Activity", "setting": "[1]; 20 μM, time 0", "result": 0.038}, {"measurement": "Cellular Metabolic Activity", "setting": "[1]; 40 μM, 24 h", "result": 0.182}, {"measurement": "Cellular Metabolic Activity", "setting": "[1]; 40 μM, 48 h", "result": 0.259}, {"measurement": "Cellular Metabolic Activity", "setting": "[1]; 40 μM, 72 h", "result": 0.467}, {"measurement": "Cellular Metabolic Activity", "setting": "[1]; 40 μM, 96 h", "result": 0.685}, {"measurement": "Cellular Metabolic Activity", "setting": "[1]; 40 μM, time 0", "result": 0.041}, {"measurement": "Cellular Metabolic Activity", "setting": "[1]; 80 μM, 24 h", "result": 0.345}, {"measurement": "Cellular Metabolic Activity", "setting": "[1]; 80 μM, 48 h", "result": 0.371}, {"measurement": "Cellular Metabolic Activity", "setting": "[1]; 80 μM, 72 h", "result": 0.579}, {"measurement": "Cellular Metabolic Activity", "setting": "[1]; 80 μM, 96 h", "result": 0.805}, {"measurement": "Cellular Metabolic Activity", "setting": "[1]; 80 μM, time 0", "result": 0.042}, {"measurement": "Cellular Metabolic Activity", "setting": "[1]; 160 μM, 24 h", "result": 0.523}, {"measurement": "Cellular Metabolic Activity", "setting": "[1]; 160 μM, 48 h", "result": 0.604}, {"measurement": "Cellular Metabolic Activity", "setting": "[1]; 160 μM, 72 h", "result": 0.808}, {"measurement": "Cellular Metabolic Activity", "setting": "[1]; 160 μM, 96 h", "result": 1.099}, {"measurement": "Cellular Metabolic Activity", "setting": "[1]; 160 μM, time 0", "result": 0.042}, {"measurement": "Cellular Metabolic Activity", "setting": "A-172 glioblastoma cells; 5 μM, 24 h", "result": 0.155}, {"measurement": "Cellular Metabolic Activity", "setting": "A-172 glioblastoma cells; 5 μM, 48 h", "result": 0.253}, {"measurement": "Cellular Metabolic Activity", "setting": "A-172 glioblastoma cells; 5 μM, 72 h", "result": 0.374}, {"measurement": "Cellular Metabolic Activity", "setting": "A-172 glioblastoma cells; 5 μM, 96 h", "result": 0.530}, {"measurement": "Cellular Metabolic Activity", "setting": "A-172 glioblastoma cells; 5 μM, time 0", "result": 0.090}, {"measurement": "Cellular Metabolic Activity", "setting": "A-172 glioblastoma cells; 10 μM, 24 h", "result": 0.181}, {"measurement": "Cellular Metabolic Activity", "setting": "A-172 glioblastoma cells; 10 μM, 48 h", "result": 0.269}, {"measurement": "Cellular Metabolic Activity", "setting": "A-172 glioblastoma cells; 10 μM, 72 h", "result": 0.363}, {"measurement": "Cellular Metabolic Activity", "setting": "A-172 glioblastoma cells; 10 μM, 96 h", "result": 0.577}, {"measurement": "Cellular Metabolic Activity", "setting": "A-172 glioblastoma cells; 10 μM, time 0", "result": 0.090}, {"measurement": "Cellular Metabolic Activity", "setting": "A-172 glioblastoma cells; 20 μM, 24 h", "result": 0.201}, {"measurement": "Cellular Metabolic Activity", "setting": "A-172 glioblastoma cells; 20 μM, 48 h", "result": 0.303}, {"measurement": "Cellular Metabolic Activity", "setting": "A-172 glioblastoma cells; 20 μM, 72 h", "result": 0.370}, {"measurement": "Cellular Metabolic Activity", "setting": "A-172 glioblastoma cells; 20 μM, 96 h", "result": 0.636}, {"measurement": "Cellular Metabolic Activity", "setting": "A-172 glioblastoma cells; 20 μM, time 0", "result": 0.082}, {"measurement": "Cellular Metabolic Activity", "setting": "A-172 glioblastoma cells; 40 μM, 24 h", "result": 0.287}, {"measurement": "Cellular Metabolic Activity", "setting": "A-172 glioblastoma cells; 40 μM, 48 h", "result": 0.369}, {"measurement": "Cellular Metabolic Activity", "setting": "A-172 glioblastoma cells; 40 μM, 72 h", "result": 0.457}, {"measurement": "Cellular Metabolic Activity", "setting": "A-172 glioblastoma cells; 40 μM, 96 h", "result": 0.703}, {"measurement": "Cellular Metabolic Activity", "setting": "A-172 glioblastoma cells; 40 μM, time 0", "result": 0.086}, {"measurement": "Cellular Metabolic Activity", "setting": "A-172 glioblastoma cells; 80 μM, 24 h", "result": 0.469}, {"measurement": "Cellular Metabolic Activity", "setting": "A-172 glioblastoma cells; 80 μM, 48 h", "result": 0.528}, {"measurement": "Cellular Metabolic Activity", "setting": "A-172 glioblastoma cells; 80 μM, 72 h", "result": 0.586}, {"measurement": "Cellular Metabolic Activity", "setting": "A-172 glioblastoma cells; 80 μM, 96 h", "result": 0.871}, {"measurement": "Cellular Metabolic Activity", "setting": "A-172 glioblastoma cells; 80 μM, time 0", "result": 0.084}, {"measurement": "effect on cell growth (MTT, words)", "setting": "A-172 glioblastoma cells; A-172, psilocybin 80 μM", "result": "modest increase in cell growth"}, {"measurement": "side effects / tolerance / intoxication", "setting": "individuals [2]", "result": "no reports of intoxication or other psychoactive effects to a degree that influenced motor skills or coordination"}, {"measurement": "dose reducing iNOS to the greatest extent", "setting": "iNOS", "result": 10, "unit": "µM"}, {"measurement": "doses resulting in the decrease of BDNF", "setting": "BDNF", "result": 20, "unit": "µM"}, {"measurement": "reduction in the MED50 with TRP agonists added", "setting": "individuals [3]; FIGS. 6 to 8", "result": "~60", "unit": "%"}, {"measurement": "MED (dose for 100% of individuals to report a psychoactive effect)", "setting": "individuals [3]; oral, 70 kg individual", "result": "over 0.3 g of dried fruiting bodies"}]}
